Test results reported in PubChem BioAssay (NCI).
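The concentration for 50% growth inhibition is given as GI50. TGI denotes the concentration required for complete inhibition of growth.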

Experiments:
Assay in all cases: NCI anticancer screen, dose series, 384-well format
[1] = tested on: SR leukemia
[2] = tested on: UO-31 renal
[3] = tested on: HCT-15 colon
[4] = tested on: PC-3 prostate
[5] = tested on: CCRF-CEM leukemia
[6] = tested on: LOX IMVI melanoma
[7] = tested on: OVCAR-3 ovarian
[8] = tested on: HCC-2998 colon
[9] = tested on: K-562 leukemia
[10] = tested on: SF-295 CNS
[11] = tested on: MALME-3M melanoma
[12] = tested on: SW-620 colon
[13] = tested on: RXF 393 renal
[14] = tested on: NCI-H460 NSCLC
[15] = tested on: MOLT-4 leukemia
[16] = tested on: 786-0 renal
[17] = tested on: CAKI-1 renal
[18] = tested on: UACC-257 melanoma
[19] = tested on: M14 melanoma
[20] = tested on: SF-539 CNS
[21] = tested on: NCI-H226 lung
[22] = tested on: SNB-75 CNS
[23] = tested on: HS 578T breast
[24] = tested on: HOP-92 NSCLC
[25] = tested on: IGROV1 ovarian
[26] = tested on: OVCAR-4 ovarian
[27] = tested on: COLO 205 colon
[28] = tested on: MCF7 breast
[29] = tested on: SK-MEL-5 melanoma
[30] = tested on: A498 renal
[31] = tested on: SN12C renal
[32] = tested on: BT-549 breast
[33] = tested on: NCI-H522 lung
[34] = tested on: HT29 colon
[35] = tested on: NCI-H322M lung
[36] = tested on: TK-10 renal
[37] = tested on: OVCAR-8 ovarian
[38] = tested on: DU-145 prostate
[39] = tested on: OVCAR-5 ovarian
[40] = tested on: T-47D breast
[41] = tested on: NCI-H23 lung
[42] = tested on: MDA-MB-435 melanoma
[43] = tested on: SF-268 CNS
[44] = tested on: KM12 colon
[45] = tested on: SNB-19 CNS
[46] = tested on: RPMI-8226 leukemia
[47] = tested on: SK-OV-3 ovarian
[48] = tested on: HOP-62 NSCLC
[49] = tested on: ACHN renal
[50] = tested on: U251 glioblastoma
[51] = tested on: SK-MEL-28 melanoma
[52] = tested on: NCI/ADR-RES ovarian
[53] = tested on: EKVX NSCLC
[54] = tested on: HL-60(TB) leukemia
[55] = tested on: A549 NSCLC
[56] = tested on: UACC-62 melanoma
[57] = tested on: MDA-MB-231 breast
[58] = tested on: MDA-MB-468 breast
[59] = tested on: SK-MEL-2 melanoma
[60] = tested on: HCT-116 colon

What does the source list for CNC(=O)CN1CCC(Oc2cc3c(Nc4cccc(Cl)c4F)ncnc3cc2OC)CC1?
GI50 [1]: 15.1 µM; TGI [1]: 29.3 µM; GI50 [2]: 12.4 µM; TGI [2]: > 100 µM; GI50 [3]: 10.8 µM; TGI [3]: 22.8 µM; GI50 [4]: 14.7 µM; TGI [4]: 35 µM; GI50 [5]: 15.3 µM; TGI [5]: 29.9 µM; GI50 [6]: 10.7 µM; TGI [6]: 22.6 µM; GI50 [7]: 1.95 µM; TGI [7]: 14.8 µM; GI50 [8]: 14.9 µM; TGI [8]: 28.4 µM; GI50 [9]: 10.9 µM; TGI [9]: 23.3 µM; GI50 [10]: 14.8 µM; TGI [10]: 28.3 µM; GI50 [11]: 12.8 µM; TGI [11]: 26.7 µM; GI50 [12]: 13.9 µM; TGI [12]: 27.4 µM; GI50 [13]: 10.1 µM; TGI [13]: 25.5 µM; GI50 [14]: 16.3 µM; TGI [14]: 34.1 µM; GI50 [15]: 14.1 µM; TGI [15]: 27.2 µM; GI50 [16]: 5.7 µM; TGI [16]: 24.6 µM; GI50 [17]: 0.915 µM; TGI [17]: 13.5 µM; GI50 [18]: 14.6 µM; TGI [18]: 28.1 µM; GI50 [19]: 15.3 µM; TGI [19]: 29.1 µM; GI50 [20]: 12.4 µM; TGI [20]: 25.5 µM; GI50 [21]: 11.1 µM; TGI [21]: 29.9 µM; GI50 [22]: 9.75 µM; TGI [22]: 34.1 µM; GI50 [23]: 4.07 µM; TGI [23]: 16.1 µM; GI50 [24]: 4.39 µM; TGI [24]: 20.2 µM; GI50 [25]: 0.068 µM; TGI [25]: 1.55 µM; GI50 [26]: 3.28 µM; TGI [26]: 24.3 µM; GI50 [27]: 15.3 µM; TGI [27]: 28.7 µM; GI50 [28]: 10.3 µM; TGI [28]: 24.9 µM; GI50 [29]: 10.2 µM; TGI [29]: 21.9 µM; GI50 [30]: 12.4 µM; TGI [30]: 27.2 µM; GI50 [31]: 0.426 µM; TGI [31]: 9.66 µM; GI50 [32]: 11.7 µM; TGI [32]: 27.1 µM; GI50 [33]: 0.0493 µM; TGI [33]: 11.6 µM; GI50 [34]: 11.3 µM; TGI [34]: 24.6 µM; GI50 [35]: < 0.01 µM; TGI [35]: 1.89 µM; GI50 [36]: 0.0537 µM; TGI [36]: 13 µM; GI50 [37]: 13.1 µM; TGI [37]: 43.2 µM; GI50 [38]: 3.88 µM; TGI [38]: 43.4 µM; GI50 [39]: 0.906 µM; TGI [39]: 10.9 µM; GI50 [40]: 0.38 µM; TGI [40]: 6.28 µM; GI50 [41]: 10.7 µM; TGI [41]: 30.8 µM; GI50 [42]: 26.6 µM; TGI [42]: 83.5 µM; GI50 [43]: 9.9 µM; TGI [43]: 36.4 µM; GI50 [44]: 18.7 µM; TGI [44]: 35.6 µM; GI50 [45]: 14.3 µM; TGI [45]: 45.2 µM; GI50 [46]: 9.35 µM; TGI [46]: 21.5 µM; GI50 [47]: 0.383 µM; TGI [47]: 11.3 µM; GI50 [48]: 8.39 µM; TGI [48]: 27.5 µM; GI50 [49]: 0.0298 µM; TGI [49]: 10.7 µM; GI50 [50]: 17.2 µM; TGI [50]: 36.3 µM; GI50 [51]: 13.9 µM; TGI [51]: 27 µM; GI50 [52]: 12.9 µM; TGI [52]: 29.4 µM; GI50 [53]: 0.0357 µM; TGI [53]: 4.33 µM; GI50 [54]: 18.9 µM; TGI [54]: 33 µM; GI50 [55]: 2.31 µM; TGI [55]: 17.7 µM; GI50 [56]: 13.9 µM; TGI [56]: 27.1 µM; GI50 [57]: 4.2 µM; TGI [57]: 18.1 µM; GI50 [58]: < 0.01 µM

Which GI50 [2] does the source give for COc1cc(N2CCC(N3CCN(C)CC3)CC2)ccc1Nc1ncc(Cl)c(Nc2ccccc2S(=O)(=O)C(C)C)n1 here?
The GI50 was 0.929 µM.

And the TGI [2]?
The TGI was 2.14 µM.

What about the GI50 [4] of the same molecule?
Its GI50 is 1.03 µM.

What about the TGI [4] of the same molecule?
Its TGI is 2.22 µM.

And the GI50 [7]?
The GI50 was 0.517 µM.

And the TGI [7]?
The TGI was 1.78 µM.

What about the GI50 [9] of the same molecule?
Its GI50 is 0.404 µM.

What about the TGI [9] of the same molecule?
Its TGI is 1.68 µM.

And the GI50 [11]?
Its GI50 is 0.494 µM.

What about the TGI [11] of the same molecule?
The TGI was 1.84 µM.

And the GI50 [12]?
Its GI50 is 0.218 µM.

And the TGI [12]?
The TGI was 1.18 µM.

And the GI50 [13]?
The GI50 was 0.294 µM.

What about the TGI [13] of the same molecule?
The TGI was 0.952 µM.

And the GI50 [14]?
Its GI50 is 0.131 µM.

What about the TGI [14] of the same molecule?
Its TGI is 1.07 µM.

What about the GI50 [15] of the same molecule?
Its GI50 is 0.202 µM.

What about the TGI [15] of the same molecule?
The TGI was 0.687 µM.

What about the GI50 [16] of the same molecule?
Its GI50 is 1.01 µM.

And the TGI [16]?
Its TGI is 2.17 µM.

And the GI50 [17]?
Its GI50 is 0.49 µM.

And the TGI [17]?
The TGI was 1.56 µM.

What about the GI50 [18] of the same molecule?
Its GI50 is 0.571 µM.

What about the TGI [18] of the same molecule?
Its TGI is 1.95 µM.

What about the GI50 [19] of the same molecule?
Its GI50 is 0.491 µM.

And the TGI [19]?
Its TGI is 1.86 µM.

And the GI50 [20]?
The GI50 was 0.246 µM.

And the TGI [20]?
Its TGI is 0.673 µM.

And the GI50 [21]?
The GI50 was 0.118 µM.

And the TGI [21]?
The TGI was 0.648 µM.

What about the GI50 [24] of the same molecule?
Its GI50 is 0.318 µM.

And the TGI [24]?
The TGI was 1.31 µM.

What about the GI50 [25] of the same molecule?
The GI50 was 0.283 µM.

And the TGI [25]?
Its TGI is 1.16 µM.

And the GI50 [26]?
The GI50 was 0.417 µM.

And the TGI [26]?
Its TGI is 12.2 µM.

What about the GI50 [27] of the same molecule?
The GI50 was 0.0518 µM.

What about the TGI [27] of the same molecule?
Its TGI is 0.232 µM.

What about the GI50 [30] of the same molecule?
Its GI50 is 0.79 µM.

And the TGI [30]?
Its TGI is 2.79 µM.

What about the GI50 [31] of the same molecule?
The GI50 was 0.385 µM.

What about the TGI [31] of the same molecule?
Its TGI is 1.4 µM.

What about the GI50 [32] of the same molecule?
The GI50 was 0.418 µM.

What about the TGI [32] of the same molecule?
Its TGI is 1.32 µM.

And the GI50 [33]?
Its GI50 is 0.367 µM.

And the TGI [33]?
Its TGI is 1.49 µM.

What about the GI50 [34] of the same molecule?
Its GI50 is 0.0486 µM.

What about the TGI [34] of the same molecule?
The TGI was 0.294 µM.

What about the GI50 [36] of the same molecule?
The GI50 was 0.379 µM.

And the TGI [36]?
The TGI was 1.51 µM.

And the GI50 [38]?
Its GI50 is 0.3 µM.

What about the TGI [38] of the same molecule?
Its TGI is 1.63 µM.

What about the GI50 [41] of the same molecule?
Its GI50 is 0.228 µM.

What about the TGI [41] of the same molecule?
Its TGI is 1.39 µM.

And the GI50 [42]?
The GI50 was 0.447 µM.

And the TGI [42]?
The TGI was 1.96 µM.

What about the GI50 [43] of the same molecule?
Its GI50 is 0.397 µM.

What about the TGI [43] of the same molecule?
The TGI was 1.51 µM.

And the GI50 [44]?
Its GI50 is 0.319 µM.

And the TGI [44]?
Its TGI is 1.29 µM.

What about the GI50 [45] of the same molecule?
The GI50 was 1.22 µM.

And the TGI [45]?
The TGI was 2.52 µM.

What about the GI50 [47] of the same molecule?
The GI50 was 1.11 µM.

And the TGI [47]?
Its TGI is 2.32 µM.

And the GI50 [48]?
Its GI50 is 0.356 µM.

What about the TGI [48] of the same molecule?
The TGI was 1.35 µM.

What about the GI50 [51] of the same molecule?
The GI50 was 17.8 µM.

What about the TGI [51] of the same molecule?
Its TGI is 32.3 µM.

What about the GI50 [53] of the same molecule?
Its GI50 is 0.0487 µM.

And the TGI [53]?
The TGI was 0.263 µM.

What about the GI50 [54] of the same molecule?
Its GI50 is 0.0361 µM.

And the TGI [54]?
Its TGI is 0.187 µM.

And the GI50 [59]?
Its GI50 is 0.383 µM.

And the TGI [59]?
The TGI was 1.83 µM.

And the GI50 [60]?
The GI50 was 0.308 µM.

And the TGI [60]?
The TGI was 1.63 µM.

What about the GI50 [56] of the same molecule?
Its GI50 is 0.388 µM.

And the TGI [56]?
Its TGI is 1.69 µM.

And the GI50 [57]?
Its GI50 is 0.556 µM.

What about the TGI [57] of the same molecule?
The TGI was 1.89 µM.

What about the GI50 [58] of the same molecule?
The GI50 was 0.133 µM.

What about the TGI [58] of the same molecule?
The TGI was 0.315 µM.
